From patent US20090246169A1, “INDOLOPYRIDINES AS EG5 KINESIN MODULATORS” (priority 2006, published 2009)

These molecules were tested on RKO p21 colon adenocarcinoma cells, uninduced (proliferating) (assay: Alamar Blue cell viability assay, RKO p21 uninduced (proliferating)). Settings: Homo sapiens; anti-proliferative/cytotoxic activity, 72 hours, without Ponasterone A; read-out: −log EC50 [mol/l] RKO p21 uninduced (proliferating) (converted).
Format: cell-based
Description: The anti-proliferative/cytotoxic activity of the compounds described herein can be tested on subclones of RKO human colon adenocarcinoma cells (Schmidt et al., Oncogene 19, 2423-2429; 2000) using the Alamar Blue cell viability assay (described in O'Brien et al. Eur J Biochem 267, 5421-5426, 2000). The compounds are dissolved as 10 mM solutions in DMSO and subsequently diluted in semi-logarithmic steps. DMSO dilutions are further diluted 1:100 into Dulbecco's modified Eagle's medium (DMEM) containing 10% fetal calf serum to a final concentration twice as much as the final concentration in the test. RKO subclones are seeded into 96 well flat bottom plates at a density of 4000 cells per well in a volume of 50 μl per well. 24 hours after seeding the 50 μl each of the compound dilutions in DMEM medium are added into each well of the 96 well plate. Each compound dilution is tested as triplicates. Wells containing untreated control cells are filled with 50 μl DMEM medium containing 1% DMSO. The cells are then incubated with the substances for 72 hours at 37° C. in a humidified atmosphere containing 5% carbon dioxide. To determine the viability of the cells, 10 μl of an Alamar Blue solution (Biosource) are added and the fluorescence is measured at an extinction of 544 nm and an emission of 590 nm. For the calculation of the cell viability the emission value from untreated cells is set as 100% viability and the emission rates of treated cells are set in relation to the values of untreated cells. Viabilities are expressed as % values. The Graphpad Prism program is used for the calculation of EC50 values for anti-proliferative/cytotoxic activity out of the obtained dose-response curves.
To determine the cell cycle specific mode of action, subclones of RKO colon adenocarcinoma cells (RKOp21 or RKOp27 as described by Schmidt et al. in Oncogene 19, 2423-2429; 2000) are seeded into 96 well flat bottom plates at a density of 16000 cells per well in a volume of 50 μl per well in DMEM growth medium with 10% FCS containing 10 μM Ponasterone A. 24 hours after seeding the 50 μl each of the compound dilutions in DMEM medium are added into each well of the 96-well plate. Each compound dilution is tested as triplicates. Wells containing untreated control cells are filled with 50 μl DMEM medium containing 1% DMSO. The cells are then incubated with the substances for 72 hours at 37° C. in a humidified atmosphere containing 5% carbon dioxide. To determine the viability of the cells, 10 μl of an Alamar Blue solution (Biosource) are added and the fluorescence is measured at an extinction of 544 nm and an emission of 590 nm. For the calculation of the cell viability the emission value from untreated cells is set as 100% viability and the emission rates of treated cells are set in relation to the values of untreated cells. Viabilities are expressed as % values. The Graphpad Prism program (GraphPad Software, Inc) is used for the calculation of EC50 values out of the obtained dose-response curves. Viability is compared of proliferating cells grown in the absence of the inducer Ponasterone A, versus viability of cells arrested by the expression of ectopic p27Kip1 induced by Ponasterone A.
Representative values for anti-proliferation/cytotoxicity [measured as −log EC50 (mol/l)] determined in the aforementioned assays follow from the following tables B1 and B2, in which the numbers of the compounds correspond to the numbers of the examples.
`COc1ccc2[nH]c3c(c2c1)C[C@@]1(C)C(=O)N(CCCNCC(F)F)C(=O)N1[C@@H]3c1ccccc1` [Example 50, (3aS, 10R)-2-[3-(2,2-Difluoro-ethylamino)-propyl]-6-methoxy-3a-methyl-10-phenyl-3a,4,9,10-tetrahydro-2,9,10a-triaza-cyclopenta[b] fluorene-1,3-dione] was tested, and the EC50 was no more than 1000 nM. For `CC[C@@]12Cc3c([nH]c4ccc(OC)cc34)[C@@H](c3ccccc3)N1C(=O)N(CCN)C2=O` (racemic) [Example 10, (3aSR,10RS)-2-(2-Amino-ethyl)-3a-ethyl-6-methoxy-10-phenyl-3a,4,9,10-tetrahydro-2,9,10a-triaza-cyclopenta[b]fluorene-1,3-dione], the EC50 was no more than 1000 nM. In the case of `COc1ccc2[nH]c3c(c2c1)C[C@@]1(C)C(=O)N(CCCN2CCC2)C(=O)N1[C@@H]3c1ccccc1` (racemic) [Example 60, (3aSR, 10RS)-2-(3-Azetidin-1-yl-propyl)-6-methoxy-3a-methyl-10-phenyl-3a,4,9,10-tetrahydro-2,9,10a-triaza-cyclopenta[b]fluorene-1,3-dione], the EC50 is reported as no more than 1000 nM. `COc1ccc2[nH]c3c(c2c1)C[C@@]1(C)C(=O)N(C)C(=O)N1[C@@H]3c1ccccc1` (racemic) [Example 2, (3aSR,10RS)-6-Methoxy-2,3a-dimethyl-10-phenyl-3a,4,9,10-tetrahydro-2,9,10a-triaza-cyclopenta[b]fluorene-1,3-dione] gave an EC50 of no more than 1000 nM. `COc1ccc2[nH]c3c(c2c1)C[C@@]1(C)C(=O)N(CCN2CCN(C)CC2)C(=O)N1[C@@H]3c1ccccc1` (racemic) [Example 34, (3aSR, 10RS)-6-Methoxy-3a-methyl-2-[2-(4-methyl-piperazin-1-yl)-ethyl]-10-phenyl-3a,4,9,10-tetrahydro-2,9,10a-triaza-cyclopenta[b] fluorene-1,3-dione] gave an EC50 of no more than 1000 nM. For `C#CC(C)NCCN1C(=O)N2[C@H](c3ccccc3)c3[nH]c4ccc(OC)cc4c3C[C@@]2(C)C1=O` (stereo partly drawn) [Example 48, (3aSR, 10RS)-6-Methoxy-3a-methyl-2-[2-(R)-1-methyl-prop-2-ynylamino)-ethyl]-10-phenyl-3a,4,9,10-tetrahydro-2,9,10a-triaza-cyclopenta [b]fluorene-1,3-dione and (3aSR, 10RS)-6-Methoxy-3a-methyl-2-[2-(S)-1-methyl-prop-2-ynylamino)-ethyl]-10-phenyl-3a,4,9,10-tetra-hydro-2,9,10a-triaza-cyclo-penta[b]fluorene-1,3-dione], the EC50 was no more than 1000 nM. In the case of `COc1ccc2[nH]c3c(c2c1)C[C@@]1(C)C(=O)N(CCCNC(C)C)C(=O)N1[C@@H]3c1ccccc1` (racemic) [Example 51, (3aSR, 10RS)-2-(3-Isopropylamino-propyl)-6-methoxy-3a-methyl-10-phenyl-3a,4,9,10-tetrahydro-2,9,10a-triaza-cyclopenta[b] fluorene-1,3-dione], the EC50 is reported as no more than 1000 nM. `C=CCN(C)CCN1C(=O)N2[C@H](c3ccccc3)c3[nH]c4ccc(OC)cc4c3C[C@@]2(C)C1=O` (racemic) [Example 37, (3aSR, 10RS)-2-[2-(Allyl-methyl-amino)-ethyl]-6-methoxy-3a-methyl-10-phenyl-3a,4,9,10-tetrahydro-2,9,10a-triaza-cyclopenta [b]fluorene-1,3-dione] was tested, and the EC50 was no more than 1000 nM. `COc1ccc2[nH]c3c(c2c1)C[C@@]1(C)C(=O)N(CCCNC(C)(C)C)C(=O)N1[C@@H]3c1ccccc1` (racemic) [Example 76, (3aSR, 10RS)-2-(3-tert-Butylamino-propyl)-6-methoxy-3a-methyl-10-phenyl-3a,4,9,10-tetrahydro-2,9,10a-triaza-cyclopenta[b] fluorene-1,3-dione] gave an EC50 of no more than 1000 nM. `CCN(C)CCCN1C(=O)N2[C@H](c3ccccc3)c3[nH]c4ccc(OC)cc4c3C[C@@]2(C)C1=O` (racemic) [Example 53, (3aSR, 10RS)-2-[3-(Ethyl-methyl-amino)-propyl]-6-methoxy-3a-methyl-10-phenyl-3a,4,9,10-tetrahydro-2,9,10a-triaza-cyclopenta[b] fluorene-1,3-dione] showed an EC50 of no more than 1000 nM. Work on `CCN(CCCN1C(=O)N2[C@H](c3ccccc3)c3[nH]c4ccc(OC)cc4c3C[C@@]2(C)C1=O)CCOC` (racemic) [Example 56, (3aSR, 10RS)-2-{3-[Ethyl-(2-methoxy-ethyl)-amino]-propyl}-6-methoxy-3a-methyl-10-phenyl-3a,4,9,10-tetrahydro-2,9,10a-triaza-cyclopenta[b]fluorene-1,3-dione] yielded an EC50 of no more than 1000 nM. Work on `COc1ccc2[nH]c3c(c2c1)C[C@@]1(C)C(=O)N(CCN2CCOCC2)C(=O)N1[C@@H]3c1ccccc1` (racemic) [Example 40, (3aSR, 10RS)-6-Methoxy-3a-methyl-2-(2-morpholin-4-yl-ethyl)-10-phenyl-3a,4,9,10-tetrahydro-2,9,10a-triaza-cyclopenta[b]fluorene-1,3-dione] yielded an EC50 of no more than 1000 nM. `COc1ccc2[nH]c3c(c2c1)C[C@@]1(C)C(=O)N(CCNCC2CC2)C(=O)N1[C@@H]3c1ccccc1` (racemic) [Example 25, (3aSR, 10RS)-2-[2-(Cyclo-propylmethyl-amino)-ethyl]-6-methoxy-3a-methyl-10-phenyl-3a,4,9,10-tetrahydro-2,9,10a-triaza-cyclopenta [b]fluorene-1,3-dione] gave an EC50 of no more than 1000 nM. `COc1ccc2[nH]c3c(c2c1)C[C@@]1(C)C(=O)N(CCCNCC(C)C)C(=O)N1[C@@H]3c1ccccc1` (racemic) [Example 52, (3aSR, 10RS)-2-(3-Isobutylamino-propyl)-6-methoxy-3a-methyl-10-phenyl-3a,4,9,10-tetrahydro-2,9,10a-triaza-cyclopenta[b] fluorene-1,3-dione] showed an EC50 of no more than 1000 nM. For `COc1ccc2[nH]c3c(c2c1)C[C@@]1(C)C(=O)N(CCCN2CCN(C)CC2)C(=O)N1[C@@H]3c1ccccc1` (racemic) [Example 68, (3aSR, 10RS)-6-Methoxy-3a-methyl-2-[3-(4-methyl-piperazin-1-yl)-propyl]-10-phenyl-3a,4,9,10-tetrahydro-2,9,10a-triaza-cyclopenta [b]fluorene-1,3-dione], the EC50 was no more than 1000 nM. Work on `COc1ccc2[nH]c3c(c2c1)C[C@@]1(C)C(=O)N(CCNC(C)(C)C)C(=O)N1[C@@H]3c1ccccc1` (racemic) [Example 27, (3aSR, 10RS)-2-(2-tert-Butylamino-ethyl)-6-methoxy-3a-methyl-10-phenyl-3a,4,9,10-tetrahydro-2,9,10a-triaza-cyclopenta[b]fluorene-1,3-dione] yielded an EC50 of no more than 1000 nM. Work on `COc1ccc2[nH]c3c(c2c1)C[C@@]1(C)C(=O)N(CCCN2CCOCC2)C(=O)N1[C@@H]3c1ccccc1` (racemic) [Example 61, (3aSR, 10RS)-6-Methoxy-3a-methyl-2-(3-morpholin-4-yl-propyl)-10-phenyl-3a,4,9,10-tetrahydro-2,9,10a-triaza-cyclopenta[b]fluorene-1,3-dione] yielded an EC50 of no more than 1000 nM. `COc1ccc2[nH]c3c(c2c1)C[C@@]1(C)C(=O)N(CCCN2CC=CCC2)C(=O)N1[C@@H]3c1ccccc1` (racemic) [Example 67, (3aSR, 10RS)-2-[3-(3,6-Dihydro-2H-pyridin-1-yl)-propyl]-6-methoxy-3a-methyl-10-phenyl-3a,4,9,10-tetra-hydro-2,9,10a-triaza-cyclo-penta[b]fluorene-1,3-dione] was tested, and the EC50 was no more than 1000 nM. `CCN(CCO)CCN1C(=O)N2[C@H](c3ccccc3)c3[nH]c4ccc(OC)cc4c3C[C@@]2(C)C1=O` (racemic) [Example 36, (3aSR, 10RS)-2-{2-[Ethyl-(2-hydroxy-ethyl)-amino]-ethyl}-6-methoxy-3a-methyl-10-phenyl-3a,4,9,10-tetra-hydro-2,9,10a-triaza-cyclo-penta[b]fluorene-1,3-dione] gave an EC50 of no more than 1000 nM. With `COc1ccc2[nH]c3c(c2c1)C[C@@]1(C)C(=O)N(CCN2CCCCCC2)C(=O)N1[C@@H]3c1ccccc1` (racemic) [Example 43, (3aSR, 10RS)-2-(2-Azepan-1-yl-ethyl)-6-methoxy-3a-methyl-10-phenyl-3a,4,9,10-tetrahydro-2,9,10a-triaza-cyclopenta[b]fluorene-1,3-dione] the EC50 was no more than 1000 nM.
